Measurements taken from US7407988B2, “Carbamic acid compounds comprising a sulfonamide linkage as HDAC inhibitors” (Topotarget UK Limited, priority 2000, dated 2008).
Where a name gives a salt, the structure may show the parent alone. Read-outs that look alike come from different tables or passages of the source.

Assays:
[1] = system: HDAC (HeLa cell extract); assay: Primary assay: deacetylase activity, HeLa cell extract as source of HDAC; assay type: biochemical, human; settings: for HDAC Inhibition HeLa, % @ 500: Table 1, @ 500
Source text: Briefly, this assay relies on the release of radioactive acetate from a radioactively labelled histone fragment by the action of HDAC enzyme. Test compounds, which inhibit HDAC, reduce the yield of radioactive acetate. Signal (e.g., scintillation counts) measured in the presence and absence of a test compound provide an indication of that compound's ability to inhibit HDAC activity. Decreased activity indicates increased inhibition by the test compound.
The histone fragment was an N-terminal sequence from histone H4, and it was labelled with radioactively labelled acetyl groups using tritiated acetylcoenzyme A (coA) in conjunction with an enzyme which is the histone acetyltransferase domain of the transcriptional coactivator p300. […] The acetylated peptide was then separated from free acetyl coA by size exclusion chromatography on Sephadex G-15 (Sigma G-15-120), using distilled H2O as the mobile phase.
After purification of the radiolabelled histone fragment, it was incubated with a source of HDAC (e.g., an extract of HeLa cells (a rich source of HDAC), recombinantly produced HDAC1 or HDAC2) and any released acetate was extracted into an organic phase and quantitatively determined using scintillation counting. By including a test compound with the source of HDAC, that compound's ability to inhibit the HDAC was determined.
Two cell volumes of extraction buffer were used, and particulate material was centrifuged out (20800 g, 4° C., 10 min). The supernatant extract having deacetylase activity was aliquotted and frozen for storage.
A source of HDAC (e.g., 2 μL of crude HeLa extract, 5 μL of HDAC1 or HDAC2; in elution buffer, as above) was incubated with 3 μL of radioactively labelled peptide along with appropriate dilutions of candidate compounds (1.5 μL) in a total volume of 150 μL of buffer (20 mM Tris pH 7.4, 10% glycerol). The reaction was carried out at 37° C. for one hour, after which the reaction was stopped by adding 20 μL of 1 M HCl/0.4 M sodium acetate. […] Radioactivity was measured using a Tri-Carb 21 00TR Liquid Scintillation Analyzer (Packard).
Percent activity (% activity) for each test compound was calculated as: % activity={(S^C−B)/(S°−B)}×100 wherein S^C denotes signal measured in the presence of enzyme and the compound being tested, S° denotes signal measured in the presence of enzyme but in the absence of the compound being tested, and B denotes the background signal measured in the absence of both enzyme and compound being tested.

[2] = system: HeLa cells; assay: Secondary assay: cell proliferation WST-1, HeLa; assay type: cell-based; settings: Homo sapiens, read-out: Cell Proliferation Inhibition WST-1 (IC50 unless otherwise specified) HeLa
[3] = system: K11 HPV E7 transformed human keratinocyte line; assay: Secondary assay: cell proliferation WST-1, K11; assay type: cell-based; settings: Homo sapiens, Keratinocyte; for IC50: Table 2, 48 h, read-out: Cell Proliferation Inhibition WST-1 (IC50 unless otherwise specified) K11
[4] = system: JURKAT human T-cell line; assay: Secondary assay: cell proliferation WST-1, Jurkat; assay type: cell-based; settings: Homo sapiens, Table 2, 48 h, read-out: Cell Proliferation Inhibition WST-1 (IC50 unless otherwise specified) Jurkat
[5] = Table 1, read-out: HDAC Inhibition (IC50 unless otherwise specified) HeLa
[6] = comparative tables, HDAC inhibition, read-out: HeLa IC50

SMILES | melting point [°C] | IC50 [1, 5] [nM] | IC50 ([2]; Table 2, 48 h) [nM] | IC50 [3] [nM] | IC50 [4] [nM] | HDAC Inhibition HeLa, % @ 500 [1] [% @ 500] | also measured
O=C(/C=C/c1ccc(NS(=O)(=O)c2ccccc2)cc1)NO [PX106499, 3-(4-Benzenesulfonylaminophenyl)-N-hydroxyacrylamide] |  | 35 | 3800 |  |  |  | IC50 [1, 6]: 35 nM
O=C(/C=C/c1cccc(S(=O)(=O)Nc2ccc(Br)cc2)c1)NO [PX106509] | 204 | 6 | 2000 | 2000 | 330 |  | 
O=C(/C=C/c1cccc(S(=O)(=O)Nc2ccc(Cl)cc2)c1)NO [PX106510] | 198 | 12 | 2300 | 4200 | 250 |  | 
O=C(/C=C/c1cccc(S(=O)(=O)NCc2ccccc2)c1)NO [PX106511] | 179 | 35 | 380 | 2500 | 235 |  | IC50 [1, 6]: 35 nM
O=C(CCCCCNS(=O)(=O)c1ccccc1)NO [PX106522, 6-Benzenesulfonylaminohexanoic acid hydroxyamide] | 80 to 82 | 1580 | 16700 |  |  |  | IC50 [1, 6]: 1600 nM
O=C(/C=C/C#Cc1cccc(S(=O)(=O)Nc2ccccc2)c1)NO [PX116238, (E)-5-(3-Phenylsulfamoylphenyl)pent-2-en-4-ynoic acid hydroxyamide] | 88 to 90 | 14 | 800 |  |  |  | IC50 [1, 6]: 14 nM
O=C(/C=C/c1ccccc1S(=O)(=O)Nc1ccccc1)NO [PX116242, N-Hydroxy-3-(2-phenylsulfamoylphenyl)acrylamide] | 205 to 206.5 |  |  |  |  | 9 | HeLa, % @ 500 nM ([1]; comparative tables): 9% @ 500 nM
O=C(/C=C/c1cccc(S(=O)(=O)NCc2cccc3ccccc23)c1)NO [PX117225, N-Hydroxy-3-{3-[(naphthalen-1-ylmethyl)sulfamoyl]-phenyl}-acrylamide] | 177 | 640 |  |  | 3300 |  | IC50 [1, 6]: 640 nM; IC50 ([2]; 48 h): 11900 nM; inhibition at 20 µM ([3]; Table 2, @ 20 μM, 48 h): 26%
O=C(/C=C/c1cccc(S(=O)(=O)NCc2ccc3c(c2)OCO3)c1)NO [PX117226, 3-{3-[(Benzo[1,3]dioxol-5-ylmethyl)-sulfamoyl]-phenyl}-N-hydroxy-acrylamide] | 163 | 26.3 | 500 | 2800 | 100 |  | 
COc1ccccc1NS(=O)(=O)c1cccc(/C=C/C(=O)NO)c1 [PX117227, N-Hydroxy-3-[3-(2-methoxy-phenylsulfamoyl)-phenyl]-acrylamide] | 181 | 50 | 1200 | 4700 | 360 |  | 
O=C(CCCCCNS(=O)(=O)c1cccnc1)NO [PX117432, 6-(Pyridine-3-sulfonylamino)hexanoic acid hydroxyamide oxalate] |  |  |  |  |  | 24 | 
O=C(/C=C/c1ccccc1S(=O)(=O)Nc1cccc2ccccc12)NO [PX117447, N-Hydroxy-3-[2-(naphthalen-1-ylsulfamoyl)-phenyl]-acrylamide] | 186 to 187 |  |  |  |  | 3 | HeLa, % @ 500 nM ([1]; comparative tables): 3% @ 500 nM; IC50 ([2]; 48 h): 77800 nM
CN(c1ccccc1)S(=O)(=O)c1ccccc1/C=C/C(=O)NO [PX117448, N-Hydroxy-3-[2-(methyl-phenyl-sulfamoyl)-phenyl]-acrylamide] | 144.5 to 145.5 |  |  |  |  | 3 | HeLa, % @ 500 nM ([1]; comparative tables): 3% @ 500 nM; IC50 ([2]; 48 h): 88900 nM
O=C(/C=C/c1cccc(S(=O)(=O)Nc2ccccc2-c2ccccc2)c1)NO [PX117713, 3-[3-(Biphenyl-2-ylsulfamoyl)phenyl]-N-hydroxy-acrylamide] |  | 138 | 5100 | 9200 | 620 |  | 
O=C(/C=C/c1cccc(S(=O)(=O)NC2Cc3ccccc3C2)c1)NO [PX117735, N-Hydroxy-3-[3-(indan-2-ylsulfamoyl)-phenyl]-acrylamide] | 164 | 6 |  | 3100 | 74 |  | 
O=C(/C=C/c1ccc(S(=O)(=O)Nc2ccc3ccccc3c2)cc1)NO [PX117736, N-Hydroxy-3-[4-(naphthalen-2-ylsulfamoyl)-phenyl]-acrylamide] | 198.5 to 199.5 | 6 |  | 800 | 120 |  | 
COc1cc(CNS(=O)(=O)c2cccc(/C=C/C(=O)NO)c2)cc(OC)c1OC [PX117778, N-Hydroxy-3-[3-(3,4,5-trimethoxy-benzylsulfamoyl)-phenyl]-acrylamide] |  | > 400 |  | > 30000 | > 10000 |  | 
COc1ccc(CCNS(=O)(=O)c2cccc(/C=C/C(=O)NO)c2)cc1OC [PX117779, 3-{3-[2-(3,4-Dimethoxy-phenyl)-ethylsulfamoyl]-phenyl}-N-hydroxy-acrylamide] |  | 250 | 9600 | 1400 | 1100 |  | 

More lines, main results first:

melting point [°C] | SMILES | IC50 [1, 5] [nM] | IC50 ([2]; Table 2, 48 h) [nM] | IC50 [3] [nM] | IC50 [4] [nM] | HDAC Inhibition HeLa, % @ 500 [1] [% @ 500] | also measured
132 to 134 | O=C(CCCCCNS(=O)(=O)c1cccnc1)NO (as salt: oxalate) [PX117432, 6-(Pyridine-3-sulfonylamino)hexanoic acid hydroxyamide oxalate] |  |  |  |  |  | 
128 to 129 | O=C(CCCCS(=O)(=O)Nc1ccccc1)NO [PX117233, 5-(Anilinosulfonyl)-N-hydroxypentanamide] |  |  |  |  | 21 | 
97 to 98 | O=C(CCCCCS(=O)(=O)Nc1ccccc1)NO [PX117234, 6-(Anilinosulfonyl)-N-hydroxyhexanamide] |  |  |  |  | 59 | HeLa, % @ 500 nM ([1]; comparative tables): 59% @ 500 nM
163 to 164 | O=C(CCCCS(=O)(=O)Nc1ccc2ccccc2c1)NO [PX117235, N-Hydroxy-5-[(2-naphthylamino)sulfonyl]pentanamide] |  |  |  |  | 40 | 
94 to 95 | O=C(CCCCCCS(=O)(=O)Nc1ccccc1)NO [PX117236] |  |  |  |  | 54 | 
191 | O=C(/C=C/c1cccc(S(=O)(=O)NCc2cccnc2)c1)NO [PX117250, N-Hydroxy-3-{3-[(pyridin-3-ylmethyl)-sulfamoyl]-phenyl}-acrylamide] | 192 | 7800 |  | 1000 |  | 
69 to 70 | CN(c1ccccc1)S(=O)(=O)CCCCCCC(=O)NO [PX117260, N-Hydroxy-7-[(methylanilino)sulfonyl]heptanamide] |  |  |  |  | 35 | 
121 to 122 | CN(c1ccccc1)S(=O)(=O)CCCCCC(=O)NO [PX117410, N-Hydroxy-6-[(methylanilino)sulfonyl]hexanamide] |  |  |  |  | 40 | 
65.5 to 66.5 | CN(c1ccccc1)S(=O)(=O)CCCCCCCC(=O)NO [PX117411, N-Hydroxy-8-[(methylanilino)sulfonyl]octanamide] |  |  |  |  | 39 | 
119 to 119.5 | O=C(CCCCCCCS(=O)(=O)N(Cc1ccccc1)c1ccccc1)NO [PX117412, 8-[(Benzylanilino)sulfonyl]-N-hydroxyoctanamide] |  |  |  |  | 54 | 
129 to 129.5 | O=C(CCCCCS(=O)(=O)N(Cc1ccccc1)c1ccccc1)NO [PX117414, 6-[(Benzylanilino)sulfonyl]-N-hydroxyhexanamide] |  |  |  |  | 46 | 
107 to 109 | O=C(CCCCCNS(=O)(=O)/C=C/c1ccccc1)NO [PX117429, 6-(2-Phenylethenesulfonylamino)hexanoic acid hydroxyamide] |  |  |  |  | 73 | 
176 to 177.5 | O=C(/C=C/c1ccc(S(=O)(=O)Nc2ccccc2)cc1)NO [PX117450, N-Hydroxy-3-(4-phenylsulfamoylphenyl)acrylamide] | 20 | 1600 |  |  |  | IC50 [1, 6]: 20 nM
